One assay deals with IDH1 R132H (Homo sapiens (Human), UniProt O75874, R132H). The assay is described as follows: Effect on the enzyme activity of IDH1 at the molecular level (NADPH consumption, diaphorase/resazurin). It counts as biochemical. Conditions: α-KG 1 mM, NADPH 4 μM, 60 min room temperature. On the procedure: The enzyme used in the experiment was purchased from cayman Co.
The substrates α-KG, NADPH and Diaphorase were purchased from Sigma; Resazurin was purchased from J&K; and the remaining reagents were purchased from Sinopharm Chemical Reagent Co., Ltd.
Compound preparation: Compound 12000 g was centrifuged for 5 min, DMSO was added to prepare 10 mM, which was vortexed, then ultrasonic treatment for 10 minutes, and stored at −40° C. The stock solution was diluted firstly with DMSO to a 10 μM solution when tested and then gradient-diluted for 3 times to a different test concentration.
Test method: The enzyme activity of IDH1 to convert α-KG to 2HG was measured by the consumption of NADPH. After the enzymatic reaction was completed, a catalytic excess of diaphorase and reazurin were added, and the resulting fluorescent signal could reflect the amount of remaining NADPH. […] IC50 values were calculated using GraphPad Prism software.
In general terms: Resazurin is reduced to fluorescent resorufin, in cell work by metabolically active cells.

In assay [1] the test system is fibrosarcoma cell line HT1080. The assay is described as follows: 2HG inhibition assay on fibrosarcoma cell line HT1080 (LC-MS/MS). It counts as cell-based, Human. The settings on record: HT-1080 cells, 48 h incubation, read-out: HT1080 2HG Inhibitory IC50. On the procedure:
In this experiment, the inhibitory activity of the compounds of the present invention against the 2HG concentration level of fibrosarcoma cell line HT1080 was measured by the following method.
Different concentrations of compounds were added and incubated for 48 h. HT-1080 cells were trypsinized and collected, and centrifuged at 500 g for 5 min. The supernatant was discarded, and the cells were resuspended in 1 ml of PBS and the number of cells per sample was counting by a counter (Beckman coulter Z2, Beckman) and adjusted to be the same. After centrifuged at 500 g for 5 min, the supernatant was discarded, and the cell pellet was stored in a refrigerator at −80° C. for 2HG detection.
Sample Treatment: an ice acetonitrile solution containing 200 μL of verapamil (internal standard) was added to sample tubes respectively, vortexed for 1 min, and placed in a refrigerator at 4° C. for 20 min to lyse the cells. 100 μL of sample was taken, another 100 μL of lysate was taken in a 96-well plate and dried with a nitrogen blower, and 100 μL of water was added and vortexed to be uniform.
1. Derivatization: 100 μL of o-benzylhydroxylamine hydrochloride derivatization reagent was added and shaken on a shaker for 1 h to complete the derivatization reaction.
2. Solution extraction: 300 μL of ethyl acetate was added separately, shaken for 20 min, centrifuged at 1900 rpm for 5 min, and placed in a refrigerator at −70° C. for 40 min. All the ethyl acetate was taken up to another sample plate, and dried with a nitrogen blower. 150 μL MEOH/H2O (v/v, 1/1) was added for reconstitution.
3. Bioanalysis: All of the above samples were analyzed by LC-MS/MS (Waters ACQUITY H-Class System, Waters/AB6500, Sciex) after centrifuged at 4000 rpm for 10 min.
The inhibition rate of the sample was obtained by the following formula: […]
IC50 values were calculated using GraphPad Prism software.

pIC50: −log10 of the molar value. Where two headings read alike, the source gives them in different places.

Sequence of IDH1 R132H (O75874 whole entry R132H): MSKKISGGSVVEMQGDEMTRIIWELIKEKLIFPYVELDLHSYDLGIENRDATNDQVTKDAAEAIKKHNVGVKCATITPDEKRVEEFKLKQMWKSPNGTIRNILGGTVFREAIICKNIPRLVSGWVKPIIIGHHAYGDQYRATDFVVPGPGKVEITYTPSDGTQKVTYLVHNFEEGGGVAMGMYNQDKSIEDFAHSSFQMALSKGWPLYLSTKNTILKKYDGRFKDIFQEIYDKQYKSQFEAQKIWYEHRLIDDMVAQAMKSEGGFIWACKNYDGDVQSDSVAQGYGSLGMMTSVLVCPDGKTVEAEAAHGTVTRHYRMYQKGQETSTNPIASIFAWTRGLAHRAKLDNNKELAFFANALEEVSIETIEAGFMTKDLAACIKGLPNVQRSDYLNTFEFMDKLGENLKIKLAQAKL

Turning to `CC(C)[C@H]1C(C)NC(=O)N1c1ccnc(N[C@@H](C)c2cn(-c3ccc(Cl)cc3)cn2)n1` (single isomer, unassigned) [Compound 86], the pIC50 on IDH1 R132H was > 7.00; in assay [1] it was 7.18.
As to `CC(C)[C@H]1C(C)NC(=O)N1c1ccnc(N[C@@H](C)c2cn(-c3ccc(Cl)cc3)cn2)n1` (single isomer, unassigned) [Compound 87], the negative-log IC50 (pIC50) against IDH1 R132H is > 7.00; in assay [1], 7.54.
Take `CC(C)[C@H]1C(C)N(C)C(=O)N1c1ccnc(N[C@@H](C)c2cn(-c3ccc(Cl)cc3)cn2)n1` (single isomer, unassigned) [Compound 90]: the negative logarithm of the IC50 (pIC50) at IDH1 R132H was > 7.00; in assay [1] (Homo sapiens, HT-1080, 48 h), 7.62.
Consider `CC(C)[C@H]1C(C)N(C)C(=O)N1c1ccnc(N[C@@H](C)c2cn(-c3ccc(Cl)cc3)cn2)n1` (single isomer, unassigned) [Compound 91], for which the negative logarithm of the IC50 (pIC50) against IDH1 R132H is > 7.00; in assay [1] it was 7.92.
Take `CC(C)[C@H]1C(C)NC(=O)N1c1ccnc(N[C@@H](C)c2cn(-c3ccc(C(F)(F)F)cc3)cn2)n1` (single isomer, unassigned) [Compound 92]: the negative-log IC50 (pIC50) at IDH1 R132H was > 7.00; in assay [1] (Homo sapiens, HT-1080, 48 h), 7.48.
On to `CC(C)[C@H]1C(C)NC(=O)N1c1ccnc(N[C@@H](C)c2cn(-c3ccc(C(F)(F)F)cc3)cn2)n1` (single isomer, unassigned) [Compound 93], for which the values for the pIC50 (on IDH1 R132H; in assay [1]) were > 7.00 and 7.46, respectively.
`CC(C)[C@H]1C(C)N(C)C(=O)N1c1ccnc(N[C@@H](C)c2cn(-c3ccc(C(F)(F)F)cc3)cn2)n1` (single isomer, unassigned) [Compound 94]: the negative logarithm of the IC50 (pIC50) against IDH1 R132H was > 7.00; in assay [1] (Homo sapiens, HT-1080, 48 h) it was > 8.00.
`CC(C)[C@H]1C(C)N(C)C(=O)N1c1ccnc(N[C@@H](C)c2cn(-c3ccc(C(F)(F)F)cc3)cn2)n1` (single isomer, unassigned) [Compound 95]: the negative-log IC50 (pIC50) is > 7.00 on IDH1 R132H and > 8.00 in assay [1].
As for `N#Cc1ccnc(N2C(=O)CC[C@H]2C(=O)N(c2cncc(F)c2)[C@H](C(=O)NC2CC(F)(F)C2)c2ccccc2Cl)c1` [AG120, reference compound], the pIC50 in assay [1] (Homo sapiens) was 7.52.
`CC(C)[C@H]1CN(C)C(=O)N1c1ccnc(N[C@@H](C)c2cn(-c3ccc(Cl)cc3)cn2)n1` [Compound 17, (S)-3-(2-(((S)-1-(1-(4-chlorophenyl)-1H-imidazol-4-yl)ethyl)amino)pyrimidin-4-yl)-4-isopropyl-1-methylimidazolidine-2-one]: the pIC50 in assay [1] (Homo sapiens, HT-1080, 48 h) was 7.89.
Still for that read-out and setting: as for `CC(C)[C@H]1CN(C)C(=O)N1c1ccnc(NC2(c3cn(-c4cc(Cl)cc(Cl)c4)cn3)CC2)n1` [Compound 26, (S)-3-(2-((1-(1-(3,5-dichlorophenyl)-1H-imidazol-4-yl)cyclopropyl)amino)pyrimidin-4-yl)-4-isopropyl-1-methylimidazolidine-2-one], the figure is 7.57.
Consider `CC(C)c1cccc(-n2cnc(C3(Nc4nccc(N5C(=O)N(C)C[C@@H]5C(C)C)n4)CC3)c2)c1` [Compound 30, (S)-3-(2-((1-(1-(3-isopropylphenyl)-1H-imidazol-4-yl)cyclopropyl)amino)pyrimidin-4-yl)-4-isopropyl-1-methylimidazolidne-2-one], for which the negative-log IC50 (pIC50) in assay [1] (Homo sapiens, HT-1080, 48 h) is 7.82.
For the compound `CC(C)[C@H]1CN(C)C(=O)N1c1ccnc(NC2(c3cn(-c4cccc(C5CC5)c4)cn3)CC2)n1` [Compound 34], the pIC50 in assay [1] (Homo sapiens, HT-1080, 48 h) was 7.80.
Consider `COc1cc(Cl)cc(-n2cnc(C3(Nc4nccc(N5C(=O)N(C)C[C@@H]5C(C)C)n4)CC3)c2)c1` [Compound 38, (S)-3-(2-((1-(1-(3-chloro-5-methoxyphenyl)-1H-imidazol-4-yl)cyclopropyl)amino)pyrimidin-4-yl)-4-isopropyl-1-methylimidazolidine-2-one], for which, in assay [1] (Homo sapiens, HT-1080, 48 h), the negative-log IC50 (pIC50) is 7.85.
The compound `C[C@H](Nc1nccc(N2C(=O)N(C)C[C@@H]2[C@@H](C)O)n1)c1cn(-c2ccc(Cl)cc2)cn1` [Compound 81] showed a negative logarithm of the IC50 (pIC50) on IDH1 R132H of 6.00 to 7.00.
Regarding `[2H]C1([2H])NC(=O)N(c2ccnc(N[C@@H](C)c3cn(-c4ccc(C(F)(F)F)cc4)cn3)n2)[C@H]1C(C)C` [Compound 83, (S)-1-(2-(((S)-1-(1-(4-(trifluoromethyl)phenyl)-1H-imidazol-4-yl)ethyl)amino)pyrimidin-4-yl)-4,4-dideutero-5-isopropylimidazolidine-2-one], the pIC50 in assay [1] (Homo sapiens, HT-1080, 48 h) was 8.00.
The same measure, in the same setting: next, `[2H]C([2H])([2H])N1C(=O)N(c2ccnc(N[C@@H](C)c3cn(-c4ccc(Cl)cc4)cn3)n2)[C@@H](C(C)C)C1([2H])[2H]` [Compound 89, (S)-3-(2-(((S)-1-(1-(4-chlorophenyl)-1H-imidazol-4-yl)ethyl)amino)pyrimidin-4-yl)-5,5-dideutero-4-isopropyl-1-deuteromethylimidazolidine-2-one]: 7.41.
Regarding `CC(C)[C@@H]1N(c2ccnc(N[C@@H](C)c3cn(-c4ccc(Cl)cc4)cn3)n2)C(=O)NC12CC2` [Compound 99, (S)-6-(2-(((S)-1-(1-(4-chlorophenyl)-1H-imidazol-4-yl)ethyl)amino)pyrimidin-4-yl)-7-isopropyl-4,6-diazaspiro[2.4] hept-5-one], at IDH1 R132H, the pIC50 is 6.00 to 7.00.
On to `CC(C)[C@@H]1N(c2ccnc(N[C@@H](C)c3cn(-c4ccc(C(F)(F)F)cc4)cn3)n2)C(=O)NC1(C)C` [Compound 101], for which the pIC50 in assay [1] (Homo sapiens, HT-1080, 48 h) is 7.70.
Regarding `CC(C)[C@@H]1N(c2ccnc(N[C@@H](C)c3cn(-c4ccc(C(F)(F)F)cc4)cn3)n2)C(=O)N(C)C12CC2` [Compound 103, (S)-7-isopropyl-4-methyl-6-(2-(((S)-1-(1-(4-(trifluoromethyl)phenyl)-1H-imidazole-4-yl) Ethyl)amino)-4-yl)-4,6-diazaspiro[2.4]hept-5-one], the pIC50 at IDH1 R132H is 6.00 to 7.00.
The same measure, in the same setting: next, `[2H]C1([2H])[C@H](C(C)C)N(c2ccnc(N[C@@H](C)c3cc(C)c(-c4ccnc(C(F)(F)F)c4)cn3)n2)C(=O)N1C` [Compound 109]: 6.00 to 7.00; `CC(C)[C@H]1CN(C)C(=O)N1c1ccnc(NC2(c3ccc(-c4ccnc(C(F)(F)F)c4)cn3)CC2)n1` [Compound 113]: 6.00 to 7.00.

In general, pIC50 refers to the IC50 on a negative log10 scale, so that one unit is a factor of ten.

(Values after patent US10682352B2, “Compound having mutant IDH inhibitory activity, preparation method and use thereof” (SHANGHAI HAIHE PHARMACEUTICAL CO., LTD., priority 2016, dated 2020).)
